Data published in US6897218B2, “Nitric oxide donors based on metallic centers” (Consiglio Nazionale Delle Ricerche, priority 2001, dated 2005).

Tests used:
[1] = tested on: rabbit aorta precontracted with noradrenaline; experiment: relaxation of rabbit aorta precontracted with noradrenaline
[2] = tested on: endothelial cells of the microcirculatory system; experiment: endothelial cell migration, Boyden chambers; type: cell-based; settings: compared with other NO donors
Excerpt: The pharmacological activity of the compounds of the invention has been evaluated by their relaxation induction effect in vascular preparations (rabbit aorta rings) precontracted with noradrenaline (Amerini et al., J. Cardiovasc. Pharmacol., 28: 82-88, […]). The endothelio-protective and pro-angiogenetic effects of the compounds have also been evaluated in a study on the proliferation and migration of endothelial cells of the microcirculatory system (M. Ziche et al., J. Clin. Invest. 94: 2036-2044, 1994).
The endothelio-protective and pro-angiogenetic effect of the compounds was also evaluated by measuring the growth promotion and migration effect on endothelial cells of the microcirculatory system compared with other NO donors. Cell migration was evaluated using Boyden chambers, and proliferation as the total number of cells after 48 hours of exposure to the substances under study (M. Ziche et al., J. Clin. Invest. 94: 2036-2044, 1994).

SMILES: NCCCNCCCCN(CCCN)/[N+]([O-])=N/O [SpermineNONOate, spermineNONOate]
- vascular relaxation, result in words [1]: much less powerful than piperazineNONOate complexes
- effect on endothelial cell migration, result in words [2]: little active and does not give the maximum effect
